Source: the NIST ThermoML archive (doi:10.1021/je060148j)

Details: Liquid, Closed cell (Static) method

COC [dimethyl ether]
Details	vapor or sublimation pressure [kPa]
219.15 K	22.3
221.13 K	25.2
223.11 K	28.3
224.88 K	31.5
226.88 K	35.4
228.85 K	39.5
230.86 K	43.9
232.86 K	48.7
234.85 K	54.1
236.85 K	59.8
239.14 K	66.3
241.14 K	73.2
244.14 K	84
247.13 K	96.1
249.13 K	104.9
251.14 K	114.3
255.13 K	135.1
257.12 K	146.6
259.14 K	159
261.13 K	171.8
263.13 K	185.6
265.13 K	199.8
267.13 K	215.5
269.13 K	231.8
271.13 K	248.9
273.13 K	266.8
275.04 K	285.1
277.02 K	305
279.02 K	326.4
281.02 K	348.8
283.02 K	372.3
285.01 K	397
287 K	422.8
288.99 K	449.8
290.99 K	478.4
293.08 K	508.9
295.07 K	540
297.07 K	573
299.08 K	606.9
301.11 K	643.1
303.08 K	680.2
305.07 K	718.4
307.07 K	758.8
309.06 K	800.7
311.07 K	844.2
313.06 K	889.5
315.06 K	936.6
317.04 K	985.3
319.03 K	1036
321.03 K	1088.7
323.02 K	1143.3
325.02 K	1200.6
327.13 K	1262.3
329.02 K	1319.9
331.11 K	1385.3
333.11 K	1450.6
335.11 K	1518.8
337.1 K	1588.4
339.1 K	1660.3
341.08 K	1733.3
343.09 K	1811.3
345.09 K	1891.2
347.08 K	1972.8
349.08 K	2057.4
351.07 K	2144.3
353.05 K	2232.7
355.05 K	2326
357.05 K	2421.9
359.05 K	2520.3
361.04 K	2621.5
